Where two headings read alike, the source gives them in different places.
Columns and labels:
[1] = tested on: P. aeruginosa strain PA20 persister cells; assay: Activity against persister cells, P. aeruginosa; type: cell-based, Pseudomonas aeruginosa; conditions: P. aeruginosa PA20 persister cells
[2] = tested on: A. baumannii strain BAA-747 persister cells; assay: Activity against persister cells, A. baumannii; type: cell-based, Acinetobacter baumannii; conditions: A. baumannii BAA-747 persister cells
Klebsiella pneumoniae [3] = assay: microbe, parasite or virus in culture; type: cell-based; conditions: CAA without human serum
[4] = tested on: Mycobacterium tuberculosis strains
Experimental: MIC values for various Chp peptides were determined using the CLSI method for broth microdilution in 96-well microtiter format.
Next, MIC values for various Chp peptides were determined using the CLSI method above for broth microdilution in 96-well microtiter format for two different Mycobacterium tuberculosis strains. The MIC was determined as explained above for the NTM strains.

[5] = tested on: carbapenem-resistant bacterial strains; assay: organism not typed; type: cell-based
Description: (§1) Determination of Minimal Inhibitory Concentrations (MIC).

M. avium = assay: 45 hr MIC against M. avium (NTM); type: cell-based, Mycobacterium avium; conditions: M. avium Chester ATCC 700898
[6] = tested on: carbapenem-resistant P. aeruginosa clinical isolate CFS-1292; assay: MIC by modified CLSI broth microdilution against P. aeruginosa CFS-1292 (CAA, CAA + human serum); type: cell-based, Pseudomonas aeruginosa
Enterobacter cloacae = assay: microbe, parasite or virus in culture; type: cell-based
Method in brief: (§2)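 Strains are exposed to peptide dilutions in CAA containing human serum, and the minimal inhibitory concentration is recorded.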

Escherichia coli = assay: microbe, parasite or virus in culture; type: cell-based
Method in brief: as §2

Acinetobacter baumannii = assay: microbe, parasite or virus in culture; type: cell-based
M. smegmatis = assay: 45 hr MIC against M. smegmatis (NTM), Mueller Hinton broth; type: cell-based, Mycobacterium smegmatis
M. scrofulaceum = assay: 45 hr MIC against M. scrofulaceum (NTM); type: cell-based, Mycobacterium scrofulaceum; conditions: M. scrofulaceum Prissick and Masson ATCC 19981
S. maltophilia = assay: MIC against S. maltophilia isolates; type: cell-based, Stenotrophomonas maltophilia; conditions: S. maltophilia isolates (n per peptide in table)
Method in brief: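 MIC in μg/mL for Chp peptides across several S. maltophilia isolates, n denoting the number of isolates tested.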

Pseudomonas aeruginosa = assay: microbe, parasite or virus in culture; type: cell-based; conditions: for MIC: CAA without human serum
[7] = Stability assessment in 100% CAA; type: in vitro ADME; design: unit not given beside the values
Experimental: Stability was assessed after incubation in 100% human serum at 37° C. after 10 minutes, 1 hour, and 2 hours.
Stability assessment was further conducted in 100% CAA and rabbit serum using the same methodology discussed above.

M. fortuitum = assay: 45 hr MIC against M. fortuitum (NTM); type: cell-based, Mycobacterium fortuitum; conditions: M. fortuitum subsp. Fortuitum da Costa Cruz. ATCC 6841
[8] = tested on: P. aeruginosa strain CFS-1292; assay: MIC in presence and absence of NaCl (140 mM); type: cell-based, Pseudomonas aeruginosa
Experimental: Certain Chp peptides were evaluated over a range of physiological NaCl levels and pH values, and were further evaluated for activity in the presence of various divalent cations.

M. intracellulare = assay: 45 hr MIC against M. intracellulare (NTM); type: cell-based, Mycobacterium intracellulare; conditions: M. intracellulare (Cuttino and McCabe) Runyon ATCC 13950
[9] = tested on: M. kansasii Hauduroy ATCC 12478; assay: 45 hr MIC against M. kansasii (NTM), Mueller Hinton broth; type: cell-based, Mycobacterium kansasii
Klebsiella pneumoniae [10] = type: cell-based
Experimental: as §1
Additional MIC testing was performed for several peptides against the ESKAPE pathogens Escherichia coli, Enterobacter cloacae, Klebsiella pneumoniae, and Acinetobacter baumannii, in CAA supplemented with human serum (Table D).

[11] = log10 CFU/mL reduction as compared to buffer
[12] = E. cloacae isolates (n per peptide in table)
[13] = E. coli isolates (n per peptide in table)
[14] = A. baumannii isolates (n per peptide in table)
[15] = P. aeruginosa isolates (n per peptide in table)
[16] = K. pneumoniae isolates (n per peptide in table)

## Lysozyme
[1]; Run #1, limit of detection 2-log10 CFU/mL
  Viable persister count after treatment (log10 CFU/mL): 4.7 Log10 (CFU/mL)
[1]; Run #2, limit of detection 2-log10 CFU/mL
  Viable persister count after treatment (log10 CFU/mL): 4.4 Log10 (CFU/mL)
[1]; Run #3, limit of detection 2-log10 CFU/mL
  Viable persister count after treatment (log10 CFU/mL): 4.2 Log10 (CFU/mL)
[1]; average of 3 runs
  Viable persister count after treatment (log10 CFU/mL): 4.4 Log10 (CFU/mL)
[1]; [11]
  Delta Log: 0.0
[2]; 1 hour at 37° C., Run #1, limit of detection 1.6-log10 CFU/mL
  MIC Log10 (CFU/mL) Run #1: 3.5 Log10 (CFU/mL)
[2]; 1 hour at 37° C., Run #2, limit of detection 1.6-log10 CFU/mL
  MIC Log10 (CFU/mL) Run #2: 5.2 Log10 (CFU/mL)
[2]; 1 hour at 37° C., Run #3, limit of detection 1.6-log10 CFU/mL
  MIC Log10 (CFU/mL) Run #3: 5.0 Log10 (CFU/mL)
[2]; average of 3 runs
  MIC Log10 (CFU/mL) Average: 4.6 Log10 (CFU/mL)
[2]; [11]
  Delta Log: 0.3

## MARSRRRMSKRSSRRSFRKYAKSHKKNFKARSMRGGIRL [Ecp2]
Klebsiella pneumoniae [3]; Klebsiella pneumoniae (ATCC 10031, MIC control strain), RSC 814
  MIC: 4 µg/mL
Klebsiella pneumoniae [3]; Klebsiella pneumoniae (g2-3 HM35K), RSC 1138
  MIC: 2 µg/mL
Klebsiella pneumoniae [3]; Klebsiella sp. (HM-44; colon, Crohn's disease), RSC 1139
  MIC: 4 µg/mL
Klebsiella pneumoniae [3]; Klebsiella spp. (HM-223; gut of Crohn's disease patient), RSC 1131
  MIC: 2 µg/mL
[4]; Mycobacterium tuberculosis (Zopf) Lehmann and Neumann ATCC 25177
  MIC: 32 µg/mL
[4]; Mycobacterium tuberculosis (Zopf) Lehmann and Neumann ATCC 35817
  MIC: 8 µg/mL
[5]; carbapenem-resistant isolate PA19
  MIC: 0.5 µg/mL
[5]; carbapenem-resistant isolate PA20
  MIC: 8 µg/mL
[5]; carbapenem-resistant isolate PA21
  MIC: 8 µg/mL
[5]; carbapenem-resistant isolate PA22
  MIC: 4 µg/mL
[5]; carbapenem-resistant isolate PA23
  MIC: 2 µg/mL
[5]; carbapenem-resistant isolate PA24
  MIC: 2 µg/mL
[5]; carbapenem-resistant isolate WLC-452
  MIC: 1 µg/mL
M. avium
  45 hr MIC: 2 µg/mL
[6]; 100% CAA, 1st run or single value
  MIC (μg/mL) against CFS-1292 in 100% CAA (1st run/2nd run): 0.25 µg/mL
[6]; CAA + […] human serum
  MIC (μg/mL) against CFS-1292 in CAA + […] human serum: 0.25 µg/mL
Enterobacter cloacae; [12]
  MIC50: 0.25 µg/mL
  MIC100: 0.5 µg/mL
  MIC Range: 0.125 to 2 µg/mL
Enterobacter cloacae; Enterobacter cloacae (ATCC 13047, MIC control strain), RSC 1240, CAA without human serum
  MIC: 4 µg/mL
Enterobacter cloacae; Enterobacter cloacae ATCC 13047, CAA supplemented with human serum
  MIC: 16 µg/mL
Escherichia coli; E. coli (ATCC 25922, MIC control strain), RSC 813, CAA without human serum
  MIC: 2 µg/mL
Escherichia coli; E. coli (HM346, colon, Crohn's disease), RSC 1212, CAA without human serum
  MIC: 4 µg/mL
Escherichia coli; [13]
  MIC50: 0.5 µg/mL
  MIC100: 1 µg/mL
  MIC Range: 0.24 to 4 µg/mL
Escherichia coli; Escherichia coli ATCC 25922, CAA supplemented with human serum
  MIC: 0.5 µg/mL
Acinetobacter baumannii; [14]
  MIC50: 0.25 µg/mL
  MIC100: 0.5 µg/mL
  MIC Range: 0.125 to 0.5 µg/mL
Acinetobacter baumannii; Acinetobacter baumannii (clinical isolate HSS), RSC 30, CAA without human serum
  MIC: 2 µg/mL
Acinetobacter baumannii; Acinetobacter baumannii (clinical isolate HSS), RSC 32, CAA without human serum
  MIC: 2 µg/mL
Acinetobacter baumannii; Acinetobacter baumannii ATCC BAA 747, CAA supplemented with human serum
  MIC: 1 µg/mL
M. smegmatis; M. smegmatis MC^2 155, Run #1
  45 hr MIC: 4 µg/mL
M. smegmatis; M. smegmatis MC^2 155, Run #2
  45 hr MIC: 8 µg/mL
M. scrofulaceum
  45 hr MIC: 4 µg/mL
S. maltophilia
  MIC50: 8 µg/mL
  MIC100: >8 µg/mL
Pseudomonas aeruginosa; P. aeruginosa 453 (Human clinical isolate, HSS), RSC 1292
  MIC: 8 µg/mL
Pseudomonas aeruginosa; P. aeruginosa (ATCC 14213, human hip wound), RSC 1111
  MIC: 4 µg/mL
Pseudomonas aeruginosa; P. aeruginosa (ATCC 15152, abscess in middle ear), RSC 1110
  MIC: 1 µg/mL
Pseudomonas aeruginosa; P. aeruginosa (ATCC 15692, infected wound), RSC 489
  MIC: 2 µg/mL
Pseudomonas aeruginosa; P. aeruginosa (ATCC 15692, infected wound), RSC 1115
  MIC: 8 µg/mL
Pseudomonas aeruginosa; P. aeruginosa (ATCC 17646, human liver abscess), RSC 1109
  MIC: 4 µg/mL
Pseudomonas aeruginosa; P. aeruginosa (ATCC 19142, tracheobronchial secretion), RSC 1108
  MIC: 4 µg/mL
Pseudomonas aeruginosa; P. aeruginosa (ATCC 25102, bacteriophage host), RSC 1114
  MIC: 2 µg/mL
Pseudomonas aeruginosa; P. aeruginosa (ATCC 27853, MIC control strain), RSC 815
  MIC: 2 µg/mL
Pseudomonas aeruginosa; P. aeruginosa (ATCC BAA-27, lab strain), RSC 1113
  MIC: 2 µg/mL
Pseudomonas aeruginosa; P. aeruginosa (PAO1, alternate source, HER1018), RSC 490
  MIC: 2 µg/mL
Pseudomonas aeruginosa; [15]
  MIC50: 2 µg/mL
  MIC100: 8 µg/mL
  MIC Range: 0.5 to 8 µg/mL
[7]
  MIC (100% CAA): 0.25
M. fortuitum
  45 hr MIC: 4 µg/mL
[8]; CAA + 140 mM NaCl versus CAA without added NaCl
  Fold change in MIC: 8
[8]; CAA + 140 mM NaCl, P. aeruginosa CFS-1292
  MIC, CAA + 140 mM NaCl: 2 µg/mL
[8]; CAA, no added NaCl, P. aeruginosa CFS-1292
  MIC, CAA (no added NaCl): 0.25 µg/mL
M. intracellulare
  45 hr MIC: 8 µg/mL
[9]
  45 hr MIC: 2 µg/mL
Klebsiella pneumoniae [10]; [16]
  MIC50: 0.5 µg/mL
  MIC100: 1 µg/mL
  MIC Range: 0.5 to 1 µg/mL
Klebsiella pneumoniae [10]; Klebsiella pneumoniae HM-44, CAA supplemented with human serum
  MIC: 0.25 µg/mL

From patent US20220401514A1, “ANTIMICROBIAL, BACTERIOPHAGE-DERIVED POLYPEPTIDES AND THEIR USE AGAINST GRAM-NEGATIVE AND ACID-FAST BACTERIA” (CONTRAFECT CORPORATION, priority 2019, published 2022)
